Tests used:
[1] = Inhibition of TNF-α release from LPS stimulated isolated human PBMC; assay type: cell-based; details: Homo sapiens, PBMC, read-out: IC50 (nM) for inhibition of TNF-α release
Experimental: The anti-inflammatory activity of the compounds against human leukocytes in vitro was also evaluated by determining inhibition of tumour necrosis factor-α (TNF-α) release from lipopolysaccharide (LPS) stimulated isolated human peripheral mononuclear cells (PBMC).
Peripheral venous blood from healthy, non-medicated donors was collected using ethylenediaminetetraacetic acid (EDTA) as the anti-coagulant. For PBMC preparation, samples of blood were diluted 1:1 with sterile phosphate buffered saline and then separated using ACCUSPIN™ System-Histopaque®-1077 tubes (Sigma-Aldrich, St Louis, Mo.), centrifuged at 400 g for 35 minutes. Buffy coat cells were removed into PBS, centrifuged at 200 g for 10 minutes and re-suspended in PBMC assay buffer (Hanks Balanced Salt Solution, 0.28% [w/v] 4-[2-hydroxyethyl]-1-piperazineethanesulfonic acid [HEPES], 0.01% [w/v] low-endotoxin bovine serum albumin [BSA]. A differential white cell count was performed and PBMC's diluted to 1×10^6 lymphocytes per ml in PBMC assay buffer.
Test compounds were dissolved in DMSO and diluted in PBMC assay buffer (final DMSO concentration 1%) to cover an appropriate concentration range, e.g 0.001 nM to 10000 nM. Samples of test compound solution or vehicle (20 μl) were added into 96-well tissue culture treated plates (Corning) and PBMC (160 μl) added to each well. The assay mixtures were incubated at 37° C. for 1 h in a humidified incubator containing an atmosphere of air supplemented with 5% CO2 before adding LPS (20 μl of 100 ng/ml for PBMC). Plates were returned to the incubator for a further 18 hours, and then centrifuged before recovery of samples of supernatant. TNF-α in the samples was determined using an enzyme-linked immunosorbent assay (ELISA) (Invitrogen kit no CHC-1754; Invitrogen Carlsbad, Calif.) and following the manufacturers instructions. Dose response curves were constructed from which IC50 values were calculated.

[2] = molecular target: T1, human GR (Homo sapiens, UniProt P04150); experiment: GR agonist potency, MMTV-luciferase reporter in SW1353 cells; assay type: cell-based; details: human chondrosarcoma cell-line SW1353 stably transfected with MMTV-luciferase reporter; approx. 18 hours; data as percentage of 1 μM dexamethasone positive control
T1 construct: SW1353 naturally expresses human GR; endogenous in cells; host or cells: human chondrosarcoma cell-line SW1353 stably transfected with an MMTV-luciferase reporter construct
T1 sequence (P04150 1-777): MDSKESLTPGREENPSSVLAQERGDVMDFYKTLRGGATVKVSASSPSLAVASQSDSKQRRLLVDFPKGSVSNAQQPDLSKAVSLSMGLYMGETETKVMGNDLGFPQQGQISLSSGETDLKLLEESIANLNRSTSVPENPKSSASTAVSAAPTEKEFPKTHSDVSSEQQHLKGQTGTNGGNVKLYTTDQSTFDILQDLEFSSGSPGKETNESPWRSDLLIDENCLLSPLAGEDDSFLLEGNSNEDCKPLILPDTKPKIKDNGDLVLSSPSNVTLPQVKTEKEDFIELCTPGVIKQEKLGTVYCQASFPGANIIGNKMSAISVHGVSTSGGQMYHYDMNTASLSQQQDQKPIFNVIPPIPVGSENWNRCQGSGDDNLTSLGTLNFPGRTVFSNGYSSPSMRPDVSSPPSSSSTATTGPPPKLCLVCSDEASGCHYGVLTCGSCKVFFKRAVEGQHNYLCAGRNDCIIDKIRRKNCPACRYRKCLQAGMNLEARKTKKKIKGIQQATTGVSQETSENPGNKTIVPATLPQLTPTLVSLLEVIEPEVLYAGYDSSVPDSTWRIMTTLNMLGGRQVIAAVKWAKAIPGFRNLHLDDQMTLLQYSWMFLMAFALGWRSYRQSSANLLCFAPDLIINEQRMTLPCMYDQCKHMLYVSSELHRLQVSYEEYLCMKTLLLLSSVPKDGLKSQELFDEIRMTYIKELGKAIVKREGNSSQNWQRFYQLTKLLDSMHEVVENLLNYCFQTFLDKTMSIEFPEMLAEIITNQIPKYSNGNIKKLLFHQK
Experimental: Glucococorticoid receptor (GR) agonist potency was determined in the human chondrosarcoma cell-line SW1353 stably transfected with an MMTV-luciferase reporter construct. SW1353 naturally expresses human GR, which on binding a glucocorticoid agonist activates glucocorticoid response elements within the MMTV promoter, driving expression of the luciferase gene.
Frozen SW1353 cells were revived in DMEM medium, without sodium pyruvate or phenol red, supplemented with 2 mM L-glutamine, 1 μg/ml insulin, 2 mg/ml lactalbumin hydrosylate and 0.5 μg/ml ascorbate. Cells were seeded at approximately 5000 cells/well (35 μl/well) in 384-well clear bottom, tissue culture treated plates. Steroid dose-response dilutions were prepared in steroid diluent (PBS containing 2.5% (v/v) DMSO and 0.05% (v/v) pluronic detergent) and 5 μl added to each well. The volume was made up to 50 μl per well with steroid diluent. Positive control wells contained 1 μM dexamethasone. Plates were incubated for approximately 18 hours at 37° C. in an air/5% CO2 atmosphere in a humidified incubator before Britelite reagent (10 μl; Perkin-Elmer) was added to each well. Each plate was incubated for 2 minutes in the dark and luminescence quantified using a LJL Biosystems Analyst luminometer. Data for test compounds (expressed as percentage of the dexamethasone positive control) were used to construct dose response curves from which EC50 values were estimated.

Structure (SMILES)	IC50 [1] [nM]	EC50 [2] [nM]
C[C@]12C=CC(=O)C=C1CC[C@H]1[C@@H]3CC[C@](OC(=O)c4ccc(Oc5ccccc5)c(O)c4)(C(=O)OCC#N)[C@@]3(C)C[C@H](O)[C@@]12F [Example 33, cyanomethyl(11beta,17alpha)-9-fluoro-11-hydroxy-17-[(3-hydroxy-4-phenoxybenzoyl)oxy]-3-oxoandrosta-1,4-diene-17-carboxylate]	0.212	68.3
C[C@]12C=CC(=O)C=C1CC[C@H]1[C@@H]3CC[C@](OC(=O)c4ccc(Sc5ccccc5O)cc4)(C(=O)OCC#N)[C@@]3(C)C[C@H](O)[C@@]12F [Example 35, cyanomethyl (11beta,17alpha)-9-fluoro-11-hydroxy-17-({4-[(2-hydroxyphenyl)thio]benzoyl}oxy)-3-oxoandrosta-1,4-diene-17-carboxylate]	0.099	75.2
C[C@]12C=CC(=O)C=C1CC[C@H]1[C@@H]3CC[C@](OC(=O)c4ccc(Oc5ccc(O)nc5)cc4)(C(=O)OCC#N)[C@@]3(C)C[C@H](O)[C@@]12F [Example 36, cyanomethyl (11beta,17alpha)-9-fluoro-11-hydroxy-17-({4-[(6-hydroxypyridin-3-yl)oxy]benzoyl}-oxy)-3-oxoandrosta-1,4-diene-17-carboxylate]	0.167	16.3
C[C@]12C=CC(=O)C=C1CC[C@H]1[C@@H]3CC[C@](OC(=O)c4ccc(Oc5ccc(O)c(Cl)c5)cc4)(C(=O)OCC#N)[C@@]3(C)C[C@H](O)[C@@]12F [Example 37, cyanomethyl (11beta,17alpha)-17-{[4-(3-chloro-4-hydroxybhenoxy)-benzoyl]oxy}-9-fluoro-11-hydroxy-3-oxoandrosta-1,4-diene-17-carboxylate]	0.201	39.7
C[C@]12C=CC(=O)C=C1CC[C@H]1[C@@H]3CC[C@](OC(=O)c4ccc(Sc5ccc(Cl)c(O)c5)cc4)(C(=O)SCC#N)[C@@]3(C)C[C@H](O)[C@@]12F [Example 38, (11beta,17alpha)-17-{[(cyanomethyl)thio]carbonyl}-9-fluoro-11-hydroxy-3-oxoandrosta-1,4-dien-17-yl 4-[(4-chloro-3-hydroxyphenyl)thio]benzoate]	0.755	54.7
C[C@]12C=CC(=O)C=C1CC[C@H]1[C@@H]3CC[C@](OC(=O)c4ccc(Sc5ccc(Cl)c(O)c5)cc4)(C(=O)OCC#N)[C@@]3(C)C[C@H](O)[C@@]12F [Example 39, cyanomethyl(11beta,17alpha)-17-({4-[(4-chloro-3-hydroxyphenyl)thio]benzoyl}oxy)-9-fluoro-11-hydroxy-3-oxoandrosta-1,4-diene-17-carboxylate]	0.615	44.1
C[C@]12C=CC(=O)C=C1CC[C@H]1[C@@H]3CC[C@](OC(=O)c4ccc(Oc5ccc(Cl)c(O)c5)cc4)(C(=O)SCF)[C@@]3(C)C[C@H](O)[C@@]12F [Example 40, (11beta,17alpha)-9-fluoro-17-{[(fluoromethyl)thio]carbonyl}-11-hydroxy-3-oxoandrosta-1,4-dien-17-yl 4-(4-chloro-3-hydroxyphenoxy)benzoate]	0.053	31.2
C[C@@H]1C[C@H]2[C@@H]3C[C@H](F)C4=CC(=O)C=C[C@]4(C)[C@@]3(F)[C@@H](O)C[C@]2(C)[C@@]1(OC(=O)c1ccc(Oc2ccc(Cl)c(O)c2)cc1)C(=O)OCF [Example 41, Fluoromethyl (6alpha,11beta,16alpha,17alpha)-17-{[4-(4-chloro-3-hydroxyphenoxy)benzoyl]oxy}-6,9-difluoro-11-hydroxy-16-methyl-3-oxoandrosta-1,4-diene-17-carboxylate]	0.032	7.73
C[C@@H]1C[C@H]2[C@@H]3C[C@H](F)C4=CC(=O)C=C[C@]4(C)[C@@]3(F)[C@@H](O)C[C@]2(C)[C@@]1(OC(=O)c1ccc(Oc2ccc(Cl)c(O)c2)cc1)C(=O)OCC#N [Example 42, Cyanomethyl (6alpha,11beta,16alpha,17alpha)-17-{[4-(4-chloro-3-hydroxyphenoxy)benzoyl]oxy}-6,9-difluoro-11-hydroxy-16-methyl-3-oxoandrosta-1,4-diene-17-carboxylate]	0.443	24.4
C[C@@H]1C[C@H]2[C@@H]3CCC4=CC(=O)C=C[C@]4(C)[C@@]3(F)[C@@H](O)C[C@]2(C)[C@@]1(OC(=O)c1ccc(Oc2ccc(O)c(Cl)c2)cc1)C(=O)SCF [Example 43, (11beta,16alpha,17alpha)-9-fluoro-17-{[(fluoromethyl)thio]carbonyl}-11-hydroxy-16-methyl-3-oxoandrosta-1,4-dien-17-yl 4-(3-chloro-4-hydroxyphenoxy)benzoate]	0.06	26.4
C[C@@H]1C[C@H]2[C@@H]3C[C@H](F)C4=CC(=O)C=C[C@]4(C)[C@@]3(F)[C@@H](O)C[C@]2(C)[C@@]1(OC(=O)c1ccc(Oc2ccc(O)c(Cl)c2)cc1)C(=O)OCF [Example 44, Fluoromethyl (6alpha,11beta,16alpha,17alpha)-17-{[4-(3-chloro-4-hydroxyphenoxy)benzoyl]oxy}-6,9-difluoro-11-hydroxy-16-methyl-3-oxoandrosta-1,4-diene-17-carboxylate]	0.029	6.7
C[C@@H]1C[C@H]2[C@@H]3C[C@H](F)C4=CC(=O)C=C[C@]4(C)[C@@]3(F)[C@@H](O)C[C@]2(C)[C@@]1(OC(=O)c1ccc(Oc2ccc(O)c(Cl)c2)cc1)C(=O)OCC#N [Example 45, cyanomethyl(6alpha,11beta,16alpha,17alpha)-17-{[4-(3-chloro-4-hydroxyphenoxy)benzoyl]oxy}-6,9-difluoro-11-hydroxy-16-methyl-3-oxoandrosta-1,4-diene-17-carboxylate]	0.155	21.3
CSc1ccc(Sc2ccc(C(=O)O[C@]3(C(=O)OCC#N)[C@H](C)C[C@H]4[C@@H]5C[C@H](F)C6=CC(=O)C=C[C@]6(C)[C@@]5(F)[C@@H](O)C[C@@]43C)cc2)cc1 [Example 46, Cyanomethyl (6alpha,11beta,16alpha,17alpha)-6,9-difluoro-11-hydroxy-16-methyl-17-[(4-{[4-(methylthio)phenyl]thio}benzoyl)oxy]-3-oxoandrosta-1,4-diene-17-carboxylate]	0.372	44.3
CSc1cccc(Oc2ccc(C(=O)O[C@]3(C(=O)OCC#N)[C@H](C)C[C@H]4[C@@H]5C[C@H](F)C6=CC(=O)C=C[C@]6(C)[C@@]5(F)[C@@H](O)C[C@@]43C)cc2)c1 [Example 47, Cyanomethyl (6alpha,11beta,16alpha, 17alpha)-6,9-difluoro-11-hydroxy-16-methyl-17-({4-[3-(methylthio)phenoxy]benzoyl}oxy)-3-oxoandrosta-1,4-diene-17-carboxylate]	0.731	25.2

Reference: patent US20100303758A1, “Novel Glucocorticoid Receptor Agonists” (priority 2009, published 2010)
